# Columns and labels:
# [1] = Stability of DHEA polymorph preparations under ambient conditions; format: physicochemical
# [2] = Oral uptake and absorption of DHEA polymorph preparations; settings: oral administration
# ovarectomized rats = settings: administration of DHEA to ovarectomized rats; cited from earlier work
# [3] = test system: systemic lupus erythematous (SLE) patients; experiment: Clinical trial data, SLE patients treated with DHEA, BMD; format: in vivo, human; settings: DHEA 200 mg daily, alone or in combination with prednisone
# Excerpt: Its role in fetal physiology is poorly understood, but it is thought to serve as a precursor for other steroids, leading to androgen and estrogenic steroids. […] However, the administration of DHEA to humans to prevent bone loss or increase bone density is not a recognized treatment for osteoporosis/osteopenia by the medical community.
# [4] = test system: Postmenopausal women with osteoporosis; settings: cited from earlier work
# [5] = test system: postmenopausal women with low bone mass; settings: cited from earlier work
# [6] = test system: spine bone mineral density (BMD); settings: analysis of 16 studies; chronic calcitonin treatment; cited from earlier work
molecule,measurement,setting,value
"C[C@]12CC[C@H](O)CC1=CC[C@@H]1[C@@H]2CC[C@]2(C)C(=O)CC[C@@H]12 [DHEA form I, dehydroepiandrosterone]",stability,[1],highly stable under ambient conditions
"C[C@]12CC[C@H](O)CC1=CC[C@@H]1[C@@H]2CC[C@]2(C)C(=O)CC[C@@H]12 [DHEA form II, dehydroepiandrosterone]",rate of absorption,[2],rapid rate of absorption (greater than the form I polymorph)
same,stability,[1],stable under ambient conditions
"C[C@]12CC[C@H](O)CC1=CC[C@@H]1[C@@H]2CC[C@]2(C)C(=O)CC[C@@H]12 [DHEA, dehydroepiandrosterone]",bone density,ovarectomized rats,increased bone density
same,improvement of BMD,[3],only slight improvement of BMD
NCCCC(O)(P(=O)(O)O)P(=O)(O)O [alendronate],increases in BMD compared with calcitonin,"[4]; alendronate 10 mg, LS and HT at 6 and 12 months (p<0.001), FN at 12 months (p=0.001)",significantly greater increases in BMD than did calcitonin
same,increases in BMD compared with calcitonin,"[5]; alendronate 10 mg, LS and HT at 6 and 12 months (p<0.001), FN at 12 months (p=0.003)",significantly greater increases in BMD than did calcitonin
calcitonin,mean increase in spine bone mineral density (BMD),[6],1.97%
same,BMD changes compared with placebo at FN,"[4]; calcitonin 200 IU daily, FN at 6 (p=0.003) and 12 months (p=0.008)",statistically different from placebo
same,BMD changes compared with placebo at LS or HT,"[4]; calcitonin 200 IU daily, LS or HT at 6 or 12 months",not significantly different
same,BMD changes compared with placebo,"[5]; calcitonin 200 IU daily, LS, HT or FN at 6 or 12 months",not statistically different from placebo
same,increases in BMD in total femur and lumbar spine,"[5]; up to 1 year of therapy, calcitonin 200 IU daily",only modest increases in BMD

# Reference: patent US7612034B2, “Treatment of subnormal bone mineral density” (Genelabs Technologies, Inc., priority 1999, dated 2009)
